Assay: Percent inhibition of glucose uptake into chondrocytes prepared from the metacarpophalageal joints of mature cow at concentration of 50 uM
Type: functional
Details: Bos taurus

SMILES | inhibition at 50 µM
O=C(O)c1cc(O)c2c(c1)C(=O)c1cccc(O)c1C2=O [RHEIN] | 3%
CCOc1ccc(OCC)c2c1C(=O)c1ccc(C(=O)O)cc1C2=O | 37.7%
O=C(O)c1cc(O)c2c(c1)C(=O)c1c(O)ccc(O)c1C2=O | 22.1%
O=C(CCc1ccc(O)cc1)c1c(O)cc(O)cc1O[C@@H]1O[C@H](CO)[C@@H](O)[C@H](O)[C@H]1O [PHLORIZIN] | 11.9%
CC(=O)Oc1ccc2c(c1)C(=O)c1cc(C(=O)O)ccc1C2=O | 1.6%
COc1cc(C(=O)O)cc2c1C(=O)c1c(OC)ccc(OC)c1C2=O | 4.8%
O=C(O)c1ccc2c(c1)C(=O)c1cc(O)ccc1C2=O | 16.9%
COc1cccc2c1C(=O)c1c(OC)cc(-c3nn[nH]n3)cc1C2=O | 36.2%
O=C1c2cccc(O)c2C(=O)c2c(O)cc(-c3nn[nH]n3)cc21 | 103%
O=C(O)c1cc(O)c2c(c1O)C(=O)c1ccccc1C2=O | 24.9%
COc1ccc(OC)c2c1C(=O)c1ccc(C(=O)O)cc1C2=O | 25.3%
COc1cccc2c1C(=O)c1c(OC)cc(C(=O)O)cc1C2=O | -1.9%
COc1cc(C(=O)O)c(OC)c2c1C(=O)c1ccccc1C2=O | 14%
CCCOc1cccc2c1C(=O)c1c(OCCC)cc(C(=O)O)cc1C2=O | 56.7%
COc1ccc(OC)c2c1C(=O)c1ccc(-c3nn[nH]n3)cc1C2=O | 81.8%
CC(=O)Oc1ccc(OC(C)=O)c2c1C(=O)c1ccc(C(=O)O)cc1C2=O | 14.8%
CCOc1cccc2c1C(=O)c1c(OCC)cc(C(=O)O)cc1C2=O | 18.5%
Oc1cc(O)c2c(c1)O[C@H](c1ccc(O)c(O)c1)[C@@H](O)C2 [CIANIDANOL] | 12.1%
CCOc1cccc2c1C(=O)c1c(OCC)cc(-c3nn[nH]n3)cc1C2=O | 92%
